{
  "source": "patent US6423694B1",
  "about": "“Method of treating otitis media with uridine triphosphates and related compounds” (Inspire Pharmaceuticals, Inc., priority 1996, dated 2002)",
  "key": {"[1]": {"system": "lung epithelial cells of cystic fibrosis patients", "settings": "U.S. Pat. No. 5,292,498; cited from earlier work"}, "otitis media": {"system": "otitis media", "assay": "Treatment of otitis media in children (Example 1)", "type": "in vivo, human", "settings": "children with otitis media; nasal drops or nasal spray twice daily, 10^-7 to 10^-2 moles/liter, with antibiotic therapy", "description": "Uridine 5′-triphosphate (UTP) is administered to children diagnosed with otitis media (OM). UTP is administered via nasal drops or nasal spray, twice daily, for a total of 5-10 days. The concentration of UTP is in the range of 10^−7 to 10^−2 moles/liter. Treatment with UTP begins as soon as OM is diagnosed and antibiotic therapy is initiated. The length of treatment for each patient is up to one month (28 days); the preferable length of treatment is one week (7 days). Effectiveness of UTP in eliminating middle ear fluid is assessed by several methods including: pneumatic otoscopy (to diagnose fluid in the middle ear and to evaluate the status of eardrum); tympanometry (to evaluate compliance of tympanic membrane/eardrum and to estimate middle ear pressure); acoustic reflectometry (to diagnose presence of air or fluid in the middle ear); and hearing evaluation tests."}, "lung epithelial cells": {"system": "lung epithelial cells", "settings": "Boucher et al. 1995, Gheber et al. 1995; cited from earlier work"}},
  "data": [
    {"smiles": "O=c1ccn([C@@H]2O[C@H](COP(=O)(O)OP(=O)(O)OP(=O)(O)O)[C@@H](O)[C@H]2O)c(=O)[nH]1", "note": "[UTP, uridine 5′-triphosphate]", "values": [
      {"measurement": "chloride and water secretion", "setting": "[1]", "value": "induce chloride and water secretion"},
      {"measurement": "number of days that middle ear fluid is present", "setting": "otitis media", "value": "decrease in the number of days that middle ear fluid is present"},
      {"measurement": "number of days that symptoms such as pain or hearing impairment are experienced", "setting": "otitis media", "value": "decrease in the number of days that symptoms such as pain or hearing impairment are experienced"},
      {"measurement": "ciliary beat frequency", "setting": "lung epithelial cells", "value": "stimulate the ciliary beat frequency"}
    ]},
    {"smiles": "Nc1ncnc2c1ncn2[C@@H]1O[C@H](COP(=O)(O)OP(=O)(O)OP(=O)(O)O)[C@@H](O)[C@H]1O", "note": "[ATP, adenosine 5′-triphosphate]", "values": [
      {"measurement": "chloride and water secretion", "setting": "[1]", "value": "induce chloride and water secretion"},
      {"measurement": "ciliary beat frequency", "setting": "lung epithelial cells", "value": "stimulate the ciliary beat frequency"}
    ]}
  ]
}
